Literature values as cited in PubChem BioAssay AID1259409 (Chemical Carcinogenesis Research Information System (CCRIS), 2018).
Where a SMILES comes first, the peptide text is derived from it. The star is where a group is joined. Leuψ(CH2N)ThzNH2 = CC(C)C[C@@H](CN1CSC[C@H]1C(N)=O)N*; Hydrocinnamoyl = O=C(CCc1ccccc1)*

System: rodent chemically induced tumor inhibition, incidence and multiplicity
Test: CCRIS tumor inhibitor studies
Conditions: for outcome: Carcinogen: DIMETHYLBENZ[A]ANTHRACENE, Strain/Sex: SENCAR/FEMALE, Dose [Carcinogen]: 10 NMOL ONCE

For CC/C=C\C/C=C\C/C=C\CCCCCCCC(=O)OC[C@H](CO[C@@H]1O[C@H](CO[C@H]2O[C@H](CO)[C@H](O)[C@H](O)[C@H]2O)[C@H](O)[C@H](O)[C@H]1O)OC(=O)CCCCCCCCCCCCC, the “tumour outcome (control, treated, inhibition, significance)” value (Carcinogen: 7,12-DIMETHYLBENZ[A]ANTHRACENE, 57-97-6, Dose [Inhibitor]: 0, 85 NMOL IN 0.1 ML ACETONE 2/WK FOR 20 WK APPLIED 1 HR PRIOR TO EACH PROMOTER DOSE (STUDY DURATION: 21 WK), Route [Inhibitor]: DERMAL, Species: MOUSE, Strain/Sex: ICR/FEMALE, Target Tissue: Type of Lesion: SKIN: PAPILLOMA, Dose [Carcinogen]: 390 NMOL IN 0.1 ML ACETONE ONCE, Promoter: 12-O-TETRADECANOYLPHORBOL-13-ACETATE, 16561-29-8) is given as 100%, 68%, 32%, p<0.05.
For CC(C)C[C@@H](CN1CSC[C@H]1C(N)=O)NC(=O)[C@H](Cc1cnc[nH]1)NC(=O)CNC(=O)[C@@H](NC(=O)[C@H](C)NC(=O)[C@H](Cc1c[nH]c2ccccc12)NC(=O)[C@H](CCC(N)=O)NC(=O)CCc1ccccc1)C(C)C (Hydrocinnamoyl-QWAVGH-{Leuψ(CH2N)ThzNH2}), the “tumour outcome (control, treated, inhibition, significance)” value (Carcinogen: N-NITROSOBIS(2-OXOPROPYL)AMINE, 60599-38-4, Dose [Inhibitor]: 0, 20 UG/D FROM OSMOTIC PUMP FOR 2 MO, Route [Inhibitor]: SUBCUTANEOUS IMPLANT, Species: HAMSTER, Strain/Sex: SYRIAN/FEMALE, Target Tissue: Type of Lesion: PANCREAS: ADENOCARCINOMA, Promoter: NONE USED) is given as 10/11 (91%), 7/11 (64%), 30%, not calculated and the “tumour outcome (control, treated, inhibition, significance)” value (Carcinogen: N-NITROSOBIS(2-OXOPROPYL)AMINE, 60599-38-4, Dose [Inhibitor]: 0, 30 UG/D FOR 2 MO, Route [Inhibitor]: SUBCUTANEOUS, Species: HAMSTER, Strain/Sex: SYRIAN/FEMALE, Target Tissue: Type of Lesion: PANCREAS: ADENOCARCINOMA, Promoter: NONE USED) is given as 11/13 (85%), 12/13 (92%), -8%, not calculated.
In the case of O=C1COc2ccccc21, the “tumour outcome (control, treated, inhibition, significance)” value (Carcinogen: BENZO[A]PYRENE, 50-32-8, Dose [Inhibitor]: 0.034 MMOL/G IN DIET FOR 5 WK BEGINNING 1 WK PRIOR TO CARCINOGEN TREATMENT (STUDY DURATION: 21 WK), Route [Inhibitor]: ORAL, Species: MOUSE, Strain/Sex: ICR/FEMALE, Target Tissue: Type of Lesion: FORESTOMACH: TUMOR, Dose [Carcinogen]: 1 MG IN 0.2 ML CORN OIL 2/WK FOR 4 WK, Promoter: NONE USED) is given as 95%, 89%, 6%, not significant.
For Cc1cc2cc3ccc4cccc5ccc(c2oc1=O)c3c45, the outcome (57-97-6, Dose [Inhibitor]: 0, 200 NMOL IN ACETONE ONCE 5 MIN PRIOR TO CARCINOGEN DOSE (STUDY DURATION: 14 WK), Route [Inhibitor]: DERMAL, Species: MOUSE, Target Tissue: Type of Lesion: SKIN: PAPILLOMA, Promoter: 12-O-TETRADECANOYLPHORBOL-13-ACETATE, 16561-29-8) is listed as 8.9, 2.8, 69%, p<0.05, the outcome (57-97-6, Dose [Inhibitor]: 0, 200 NMOL IN ACETONE ONCE 24 HR PRIOR TO CARCINOGEN DOSE (STUDY DURATION: 14 WK), Route [Inhibitor]: DERMAL, Species: MOUSE, Target Tissue: Type of Lesion: SKIN: PAPILLOMA, Promoter: 12-O-TETRADECANOYLPHORBOL-13-ACETATE, 16561-29-8) is listed as 8.9, 2.1, 76%, p<0.05 and the outcome (57-97-6, Dose [Inhibitor]: 0, 400 NMOL IN ACETONE ONCE 5 MIN PRIOR TO CARCINOGEN DOSE (STUDY DURATION: 14 WK), Route [Inhibitor]: DERMAL, Species: MOUSE, Target Tissue: Type of Lesion: SKIN: PAPILLOMA, Promoter: 12-O-TETRADECANOYLPHORBOL-13-ACETATE, 16561-29-8) is listed as 8.9, 3.3, 63%, p<0.05.
